Consider 4 compounds from US9744181B2, “Compositions and methods for combination antiviral therapy” (priority 2003, dated 2017).

SMILES strings stand for the structures. Where a name gives a salt, the structure may show the parent alone.

One series concerns HIV. Conditions: patients, once-a-day dose of 200 mg.
For series [1] the following is noted: combination tablet, six months at 40° C./75% RH; for loss in % label strength: with desiccant, significant defined as ≧5% degradation.
A further series deals with HIV-1. Particulars: in combination with recombinant soluble CD4 castanosperinine and recombinant interferon-α; cited from earlier work.
Series [2] has as its system normal human bone marrow progenitor cells. Conditions: AZT together with recombinant interferon-α; cited from earlier work.
A further series concerns HIV replication. Particulars: in combination with PMPA, d4T, ddC, nelfinavir, ritonavir, and saquinavir; cited from earlier work.

As to `Nc1nc(=O)n([C@@H]2CS[C@H](CO)O2)cc1F` (single isomer, unassigned) [Emtricitabine], the “average reduction of viral load” value in the series on HIV is given as 99%. The “loss in % label strength” value in series [1] was “No significant loss”. Regarding `Cc1cn([C@H]2C[C@H](N=[N+]=[N-])[C@@H](CO)O2)c(=O)[nH]c1=O` [AZT, 3′-azido, 3′-deoxythymidine], the “synergy of antiviral activity in vitro” value in the series on HIV-1 is listed as “synergistic antiviral activity”. Further, in series [2], the cytotoxic effect result is listed as “increased cytotoxic effect”. With `CC(C)(C)C(=O)OCOP(=O)(COCCn1cnc2c(N)ncnc21)OCOC(=O)C(C)(C)C` [Adefovir dipivoxil], in the series with HIV replication, the “synergy of inhibition of HIV replication” value was “minor to moderate synergistic inhibition”. On to `CC(C)OC(=O)OCOP(=O)(CO[C@H](C)Cn1cnc2c(N)ncnc21)OCOC(=O)OC(C)C` [Tenofovir disoproxil fumarate, 9-[(R)-2-[[bis[[(isopropoxycarbonyl)oxy]methoxy]phosphinyl]methoxy]propyl]adenine fumarate (1:1)], for which, in series [1] (packaged and stored with 3 grams of desiccant), the “increase in the total degradation products” value was determined as 1.5%. Besides, the “loss in % label strength” value in series [1] is “No significant loss”.
